This assay deals with T1, human neutrophil elastase (HNE) (Homo sapiens, UniProt P08246).
T1 construct: purchased Sigma E8140
T1 sequence (P08246 30-247 limits assumed): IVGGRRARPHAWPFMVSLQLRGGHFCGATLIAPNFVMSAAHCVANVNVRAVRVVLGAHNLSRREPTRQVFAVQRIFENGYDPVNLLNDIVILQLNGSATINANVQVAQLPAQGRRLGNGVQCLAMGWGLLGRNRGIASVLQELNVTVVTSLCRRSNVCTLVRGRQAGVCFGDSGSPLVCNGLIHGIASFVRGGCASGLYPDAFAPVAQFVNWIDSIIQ
As to the kind of experiment: HNE enzyme assay. The assay is classed as biochemical. The following applies: human leukocyte elastase 0.00072 U/mL; substrate MeOSuc-Ala-Ala-Pro-Val-AMC 100 μM; 25° C., 30 minutes; at least two separate experiments; read-out: HNE inhibition. The procedure:
Compounds of this invention were tested for potency in a human neutrophil elastase (HNE) enzyme activity assay. HNE Enzyme Assay Assays were performed in 96-well plates in a total assay volume of 100 μL. The final concentration of elastase enzyme (human leukocyte elastase, Sigma E8140) was 0.00072 U/mL. The peptide substrate (MeOSuc-[…], Calbiochem #324740) was used at a final concentration of 100 μM. The final concentration of DMSO was 1% in the assay buffer (0.05M Tris.HCl, 0.1M NaCl, 0.1M CaCl2, 0.0005% brij-35, pH 7.5). The enzymatic reaction was started by addition of the enzyme and incubated at 25° C. for 30 minutes. After incubation, the reaction was stopped by addition of soybean trypsin inhibitor (Sigma T9003) at a final concentration of 50 μg/well. Fluorescence was measured using a Molecular Devices fluorescence plate reader using 380 nm excitation and 460 nm emission wavelengths. A dose response to each compound was performed and the effect of compound in each experiment was expressed as a percentage inhibition of the control enzyme fluorescence. Dose response curves were plotted and compound potency (IC50) was determined. Compounds were tested in at least two separate experiments.
Turning to `Cc1c(-c2n(-c3ccc(C#N)cc3)cc[n+]2C)n(C(=O)NC2CCCC2)c(=O)n1-c1cccc(C(F)(F)F)c1` [Example 1, 1-(4-Cyanophenyl)-2-{3-(cyclopentylcarbamoyl)-5-methyl-2-oxo-1-[3-(trifluoromethyl)phenyl]-2,3-dihydro-1H-imidazol-4-yl}-3-methyl-1H-imidazol-3-ium benzene sulfonate], the IC50 was less than 1 nM. Under `Cc1c(-c2n(-c3ccc(C#N)cc3)cc[n+]2Cc2ccccc2)n(C(=O)NC2CCCC2)c(=O)n1-c1cccc(C(F)(F)F)c1` [Example 2, 1-(4-Cyanophenyl)-2-{3-(cyclopentylcarbamoyl)-5-methyl-2-oxo-1-[3-(trifluoromethyl)phenyl]-2,3-dihydro-1H-imidazol-4-yl}-3-benzyl-1H-imidazol-3-ium bromide] stands less than 1 nM; under `Cc1c(-c2n(-c3ccc(C#N)cc3)cc[n+]2C)n(C(=O)NC2CCC2)c(=O)n1-c1cccc(C(F)(F)F)c1` [Example 3, 1-(4-Cyanophenyl)-2-{3-(cyclobutylcarbamoyl)-5-methyl-2-oxo-1-[3-(trifluoromethyl)phenyl]-2,3-dihydro-1H-imidazol-4-yl}-3-methyl-1H-imidazol-3-ium benzene sulfonate], less than 1 nM; under `Cc1c(-c2n(-c3ccc(C#N)cc3)cc[n+]2C)n(C(=O)NC2CCN(C(=O)C(F)(F)F)CC2)c(=O)n1-c1cccc(C(F)(F)F)c1` [Example 4, 1-(4-Cyanophenyl)-2-{3-[1-(2,2,2-trifluoro-acetyl)-piperidin-4-ylcarbamoyl]-5-methyl-2-oxo-1-[3-(trifluoromethyl)phenyl]-2,3-dihydro-1H-imidazol-4-yl}-3-methyl-1H-imidazol-3-ium benzene sulfonate], less than 1 nM. As for `Cc1c(-c2n(-c3ccc(C#N)cc3)cc[n+]2C)n(C(=O)NCc2ccc(S(C)(=O)=O)cc2)c(=O)n1-c1cccc(C(F)(F)F)c1` [Example 5, 1-(4-Cyanophenyl)-2-{3-(4-methanesulfonyl-benzylcarbamoyl)-5-methyl-2-oxo-1-[3-(trifluoromethyl)phenyl]-2,3-dihydro-1H-imidazol-4-yl}-3-methyl-1H-imidazol-3-ium benzene sulfonate], the figure is 1 to 10 nM; as for `Cc1c(-c2n(-c3ccc(C#N)cc3)nc[n+]2C)n(C(=O)NC2CCCC2)c(=O)n1-c1cccc(C(F)(F)F)c1` [Example 6, 1-(4-Cyano-phenyl)-5-[3-cyclopentylcarbamoyl-5-methyl-2-oxo-1-(3-trifluoromethyl-phenyl)-2,3-dihydro-1H-imidazol-4-yl]-4-methyl-1H-[1,2,4]triazol-4-ium benzene sulfonate], less than 1 nM.

In the case of `Cn1c(-c2n(-c3ccc(C#N)cc3)cc[n+]2C)c(C(=O)NC2CCCC2)c(=O)n1-c1cccc(C(F)(F)F)c1` [Example 7, 3-(4-Cyano-phenyl)-2-[4-cyclopentylcarbamoyl-2-methyl-5-oxo-1-(3-trifluoromethyl-phenyl)-2,5-dihydro-1H-pyrazol-3-yl]-1-methyl-3H-imidazol-1-ium benzenesulfonate], the IC50 is less than 1 nM. Under `Cn1c(-c2n(-c3ccc(C#N)cc3)nc[n+]2C)c(C(=O)NC2CCCC2)c(=O)n1-c1cccc(C(F)(F)F)c1` [Example 8, 1-(4-cyano-phenyl)-5-[4-cyclopentylcarbamoyl-2-methyl-5-oxo-1-(3-trifluoromethyl-phenyl)-2,5-dihydro-1H-pyrazol-3-yl]-4-methyl-1H-[1,2,4]triazol-4-ium benzenesulfonate] stands less than 1 nM; under `Cc1c(-c2ccnn2-c2ccc(C#N)cc2CC[N+](C)(C)C)n(C(=O)NC2CCCC2)c(=O)n1-c1cccc(C(F)(F)F)c1` [Example 9, [2-(5-Cyano-2-{5-[3-cyclopentylcarbamoyl-5-methyl-2-oxo-1-(3-trifluoromethyl-phenyl)-2,3-dihydro-1H-imidazol-4-yl]-pyrazol-1-yl}-phenyl)-ethyl]-trimethyl-ammonium benzene sulfonate], less than 1 nM; under `Cc1c(-c2ccnn2-c2ccc(C#N)cc2CC[N+](C)(C)Cc2ccccc2)n(C(=O)NC2CCCC2)c(=O)n1-c1cccc(C(F)(F)F)c1` [Example 10, Benzyl-[2-(5-cyano-2-{5-[3-cyclopentylcarbamoyl-5-methyl-2-oxo-1-(3-trifluoromethyl-phenyl)-2,3-dihydro-1H-imidazol-4-yl]-pyrazol-1-yl}-phenyl)-ethyl]-dimethyl-ammonium bromide], less than 1 nM. Under `Cc1c(-c2ccnn2-c2ccc(C#N)cc2CC[N+](C)(C)C)n(C(=O)NC2CCCCC2)c(=O)n1-c1cccc(C(F)(F)F)c1` [Example 11, [2-(5-Cyano-2-{5-[3-cyclohexylcarbamoyl-5-methyl-2-oxo-1-(3-trifluoromethyl-phenyl)-2,3-dihydro-1H-imidazol-4-yl]-pyrazol-1-yl}-phenyl)-ethyl]-trimethyl-ammonium benzene sulphonate] stands less than 1 nM.

With `Cc1c(-c2ccnn2-c2ccc(C#N)cc2CC[N+](C)(C)C)n(C(=O)NC2CC2)c(=O)n1-c1cccc(C(F)(F)F)c1` [Example 12, [2-(5-Cyano-2-{5-[3-cyclopropylcarbamoyl-5-methyl-2-oxo-1-(3-trifluoromethyl-phenyl)-2,3-dihydro-1H-imidazol-4-yl]-pyrazol-1-yl}-phenyl)-ethyl]-trimethyl-ammonium benzene sulphonate], the IC50 is less than 1 nM.

As for `CCNC(=O)n1c(-c2ccnn2-c2ccc(C#N)cc2CC[N+](C)(C)C)c(C)n(-c2cccc(C(F)(F)F)c2)c1=O` [Example 13, [2-(5-Cyano-2-{5-[3-ethylcarbamoyl-5-methyl-2-oxo-1-(3-trifluoromethyl-phenyl)-2,3-dihydro-1H-imidazol-4-yl]-pyrazol-1-yl}-phenyl)-ethyl]-trimethyl-ammonium benzene sulphonate], the IC50 was less than 1 nM. As for `Cc1c(-c2ccnn2-c2ccc(C#N)cc2CC[N+](C)(C)C)n(C(=O)NC(C)C)c(=O)n1-c1cccc(C(F)(F)F)c1` [Example 14, [2-(5-Cyano-2-{5-[3-isopropylcarbamoyl-5-methyl-2-oxo-1-(3-trifluoromethyl-phenyl)-2,3-dihydro-1H-imidazol-4-yl]-pyrazol-1-yl}-phenyl)-ethyl]-trimethyl-ammonium benzene sulphonate], the figure is less than 1 nM; as for `Cn1c(-c2ccnn2-c2ccc(C#N)cc2CC[N+](C)(C)C)c(C(=O)NC2CCCC2)c(=O)n1-c1cccc(C(F)(F)F)c1` [Example 15, (2-{5-Cyano-2-[4′-cyclopentylcarbamoyl-2′-methyl-5′-oxo-1′-(3-trifluoromethyl-phenyl)-2′,5′-dihydro-1′H-[3,3′]bipyrazolyl-2-yl]-phenyl}-ethyl)-trimethyl-ammonium benzene sulfonate], less than 1 nM. As for `Cn1c(-c2ccnn2-c2ccc(C#N)cc2CC[N+](C)(C)Cc2ccccc2)c(C(=O)NC2CCCC2)c(=O)n1-c1cccc(C(F)(F)F)c1` [Example 16, Benzyl-(2-{5-cyano-2-[4′-cyclopentylcarbamoyl-2′-methyl-5′-oxo-1′-(3-trifluoromethyl-phenyl)-2′,5′-dihydro-1′H-[3,3′]bipyrazolyl-2-yl]-phenyl}-ethyl)-dimethyl-ammonium bromide], the figure is less than 1 nM. As for `Cn1c(-c2ccnn2-c2ccc(C#N)cc2CC[N+](C)(C)C)c(C(=O)NC2CCCCC2)c(=O)n1-c1cccc(C(F)(F)F)c1` [Example 17, (2-{5-Cyano-2-[4′-cyclohexylcarbamoyl-2′-methyl-5′-oxo-1′-(3-trifluoromethyl-phenyl)-2′,5′-dihydro-1′H-[3,3′]bipyrazolyl-2-yl]-phenyl}-ethyl)-trimethyl-ammonium benzene sulfonate], the figure is less than 1 nM.

Source of the values: patent publication US9862706B2, “Compounds” (CHIESI FARMACEUTICI S.P.A., priority 2016, dated 2018).
